Results from patent publication US20190175728A1, “NUCLEIC ACID-ANTIGEN PEPTIDE CONJUGATE” (NAPAJEN PHARMA, INC., priority 2017, published 2019).
No end group written: not given here.

Experiments:
[1] = tested on: OVA257-264 presenting cells (CFSE^high spleen cells); assay: In vivo CTL assay; design: species or system C57BL/6J mice; details: target cells given day 7, counted after 24 hours
Description: SPG/dA40(S)-OVA257-264 (20, 100, 500 ng in the amount of OVA257-264) and CpG-dA40(S)/SPG (30 μg in the amount of CpG-dA) were intradermally administered to C57BL/6J mice.
On day 7 of administration, spleen cells were provided according to the following procedure. Spleen cells excised from normal C57BL/6J mice were treated with 10 μg/ml of OVA257-264 at 37° C. for 90 minutes. Thereafter, the spleen cells were washed three times with PBS, and the spleen cells were labeled with 5 μM carboxyfluorescein succinimidyl ester (CFSE); Invitrogen, Carlsbad, Calif.). Further, spleen cells not treated with OVA257-264 were similarly labeled with CFSE (0.5 μM). The labeled cells were washed three times with PBS. The spleen cells treated with OVA257-264 (CFSE^high) and the spleen cells not treated with OVA257-264 (CFSE^low) were mixed so that the number of the treated spleen cells was equal to the number of the untreated spleen cells. […] After that, the spleen cells were removed from the mice, and the CFSE-labeled cells were counted by flow cytometry.
OVA257-264 presenting cells were not observed when the dose of OVA257-264 was 100 ng/head or more. […] The difference in ability of inducing CTL reaction between SPG/dA40(S)-OVA257-264 and OVA257-264-click-dA40(S)/SPG was consistent with the result of Example 5 in which the antigen presenting ability was evaluated.

[2] = molecular target: T1, murine endoplasmic reticulum aminopeptidase (Mus musculus, UniProt Q9EQH2); assay: Cleavage of dA40(S)-peptide conjugate by endoplasmic reticulum aminopeptidase (polyacrylamide gel electrophoresis); type: biochemical; details: conjugate 1.5 μM, aminopeptidase 0.5 μg/ml, 25 mM Tris buffer pH 8.0, 37° C., 18 hours
T1 construct: purchased R & D Systems 2500-ZN
T1 sequence (Q9EQH2 1-930): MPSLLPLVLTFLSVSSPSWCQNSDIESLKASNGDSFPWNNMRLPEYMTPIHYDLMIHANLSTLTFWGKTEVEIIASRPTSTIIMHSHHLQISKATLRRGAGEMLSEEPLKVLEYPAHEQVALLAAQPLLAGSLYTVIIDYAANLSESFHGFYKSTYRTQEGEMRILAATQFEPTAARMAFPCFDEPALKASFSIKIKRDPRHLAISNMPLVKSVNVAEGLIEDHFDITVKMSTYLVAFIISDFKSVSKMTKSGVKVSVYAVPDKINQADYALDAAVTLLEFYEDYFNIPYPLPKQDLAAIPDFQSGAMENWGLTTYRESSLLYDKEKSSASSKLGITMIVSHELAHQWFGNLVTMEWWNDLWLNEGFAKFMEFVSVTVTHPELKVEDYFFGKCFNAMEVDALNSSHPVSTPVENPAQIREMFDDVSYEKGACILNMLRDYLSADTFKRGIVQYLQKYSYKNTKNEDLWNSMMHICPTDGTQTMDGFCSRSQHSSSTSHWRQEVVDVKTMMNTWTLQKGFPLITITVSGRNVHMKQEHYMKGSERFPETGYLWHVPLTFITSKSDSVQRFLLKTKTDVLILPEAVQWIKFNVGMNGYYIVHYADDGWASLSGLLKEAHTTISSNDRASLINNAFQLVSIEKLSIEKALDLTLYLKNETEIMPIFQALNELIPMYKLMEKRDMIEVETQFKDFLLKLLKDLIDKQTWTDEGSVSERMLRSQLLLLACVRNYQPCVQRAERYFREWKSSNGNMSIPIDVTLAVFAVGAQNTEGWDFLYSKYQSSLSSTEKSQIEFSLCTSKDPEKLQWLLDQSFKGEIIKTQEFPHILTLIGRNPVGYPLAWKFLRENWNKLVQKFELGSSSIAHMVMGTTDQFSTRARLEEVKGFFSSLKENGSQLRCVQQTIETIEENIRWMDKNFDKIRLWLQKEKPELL
Description: Each of the dA40(S)-peptide conjugates (1.5 μM) and murine endoplasmic reticulum aminopeptidase (0.5 μg/ml) (R & D Systems catalog Number 2500-ZN) were added to a 25 mM Tris buffer (pH 8.0) and the mixture was incubated at 37° C. for 18 hours. After completion of the reaction, polyacrylamide gel electrophoresis was carried out to observe the state of release from the dA40(S)-peptide conjugate.
In FIG. 2, pep(C)-dA40(S) represents a dA40(S)-peptide conjugate obtained by using peptide 1, dA40(S)-(C)pep represents a dA40(S)-peptide conjugate obtained by using peptide 2, dA40(S)-(C)pep long represents a dA40(S)-peptide conjugate obtained by using peptide 3, and dA40(S)-(C)pep long miss (L→K) represents a dA40(S)-peptide conjugate obtained by using peptide 4. […] Aminopeptidase is one of the enzymes that trim antigen peptides to present the antigen peptides to MHC. Accordingly, it is important for antigen presentation using the dA40(S)-peptide conjugate that even in the case of the peptide in which polydeoxyadenine is bonded to the N-terminal cysteine, the C-terminal side is composed of the hydrophobic amino acid residue. This fact was confirmed.

[3] = tested on: macrophages recovered from the peritoneal cavity; assay: Antigen presenting ability of dA40(S)-peptide conjugates, fluorescence microscopy after anti-OVA257-264/H-2Kb PE staining; type: cell-based, C57BL/6J mice; details: conjugate 10 μM, 18 hours, 1.5×10^5 cells/well
Description: 3 ml of thioglycollate medium was administered to the peritoneal cavity of C57BL/6J mice 3 days later, macrophages were recovered from the peritoneal cavity. The resulting macrophages were seeded in 48 wells (1.5×10^5 cells/well), and further each of the dA40(S)-peptide conjugates was added to the wells at a concentration of 10 μM. […], the fixed cells were stained with Anti-Mouse OVA257-264 (SIINFEKL) peptide bound to H-2Kb PE, and the resulting cells were subjected to fluorescence microscopic observation.
In FIG. 3, pep(C)-dA40(S) represents a dA40(S)-peptide conjugate obtained by using peptide 1, dA40(S)-(C)pep represents a dA40(S)-peptide conjugate obtained by using peptide 2, dA40(S)-(C)pep long represents a dA40(S)-peptide conjugate obtained by using peptide 3, and dA40(S)-(C)pep long miss (L→K) represents a dA40(S)-peptide conjugate obtained by using peptide 4.

[4] = tested on: macrophages recovered from the peritoneal cavity; assay: Antigen presenting ability of SPG/dA40(S)-OVA257-264, flow cytometry after anti-OVA257-264/H-2Kb PE staining; type: cell-based, C57BL/6J mice; details: concentration of OVA257-264 5 μg/ml, 18 hours
Description: 3 ml of thioglycollate medium was administered to the peritoneal cavity of C57BL/6J mice 3 days later, macrophages were recovered from the peritoneal cavity. The resulting macrophages were seeded in 48 wells (1.5×10^5 cells/well), and further SPG/dA40(S)-OVA257-264, dA40(S)-OVA257-264, or OVA257-264-click-dA40(S)/SPG was added at a concentration of OVA257-264 of 5 μg/ml. […], the fixed cells were stained with Anti-Mouse OVA257-264 (SIINFEKL) peptide bound to H-2Kb PE, and the resulting cells were analyzed by flow cytometry.

[5] = molecular target: T2, dA40(S)-peptide conjugate obtained by using peptide 1
T2 chain: SIINFEKLC

[6] = molecular target: T3, dA40(S)-peptide conjugate obtained by using peptide 3
T3 chain: CQLESIINFEKL

[7] = molecular target: T4, dA40(S)-peptide conjugate obtained by using peptide 2
T4 chain: CSIINFEKL

SPG/dA40(S)-OVA257-264: complex of dA40(S)-OVA257-264 and schizophyllan (SPG) (SIINFEKL; also: dA40(S) conjugate, site not given here, complex with schizophyllan (SPG); UniProt P01012 258-265, looked up, fragment)
decrease in OVA257-264 presenting cells (CFSE^high spleen cells) ([1]; intradermal, 20, 100, 500 ng OVA257-264, together with CpG-dA40(S)/SPG 30 μg): observed depending on the dose of OVA257-264 | dose of OVA257-264 at which OVA257-264 presenting cells were not observed ([1]; intradermal, together with CpG-dA40(S)/SPG 30 μg): ≥ 100 ng/head

dA40(S)-(C)pep long miss (L→K): dA40(S) disulfide-bonded via LC-SPDP linker to N-terminal cysteine of peptide 4, CSIINFEKK (SEQ ID NO: 4) (cyclised or stapled)
state of release from the dA40(S)-peptide conjugate after enzyme treatment [2]: not recognized by the enzyme | fluorescence of OVA257-264 (SIINFEKL) bound to H-2Kb (antigen presentation) [3]: antigen presentation hardly occurred

dA40(S)-OVA257-264: conjugate of dA40(S) and ovalbumin antigen peptide OVA257-264 (SIINFEKL), prepared in the manner described in Example 1 (also: dA40(S) conjugate, site not given here; UniProt P01012 258-265, looked up, fragment)
antigen (OVA257-264) presentation level [4]: the same as that of SPG/dA40(S)-OVA257-264

pep(C)-dA40(S): dA40(S) disulfide-bonded via LC-SPDP linker to C-terminal cysteine of peptide 1, SIINFEKLC (SEQ ID NO: 1) (cyclised or stapled)
state of release from the dA40(S)-peptide conjugate after enzyme treatment [2]: no change was observed in the electrophoretic distance | fluorescence of OVA257-264 (SIINFEKL) bound to H-2Kb (antigen presentation) [3]: Very weak fluorescence

B1: murine endoplasmic reticulum aminopeptidase (R & D Systems catalog Number 2500-ZN) (protein)
chain: DIESLKASNGDSFPWNNMRLPEYMTPIHYDLMIHANLSTLTFWGKTEVEIIASRPTSTIIMHSHHLQISKATLRRGAGEMLSEEPLKVLEYPAHEQVALLAAQPLLAGSLYTVIIDYAANLSESFHGFYKSTYRTQEGEMRILAATQFEPTAARMAFPCFDEPALKASFSIKIKRDPRHLAISNMPLVKSVNVAEGLIEDHFDITVKMSTYLVAFIISDFKSVSKMTKSGVKVSVYAVPDKINQADYALDAAVTLLEFYEDYFNIPYPLPKQDLAAIPDFQSGAMENWGLTTYRESSLLYDKEKSSASSKLGITMIVSHELAHQWFGNLVTMEWWNDLWLNEGFAKFMEFVSVTVTHPELKVEDYFFGKCFNAMEVDALNSSHPVSTPVENPAQIREMFDDVSYEKGACILNMLRDYLSADTFKRGIVQYLQKYSYKNTKNEDLWNSMMHICPTDGTQTMDGFCSRSQHSSSTSHWRQEVVDVKTMMNTWTLQKGFPLITITVSGRNVHMKQEHYMKGSERFPETGYLWHVPLTFITSKSDSVQRFLLKTKTDVLILPEAVQWIKFNVGMNGYYIVHYADDGWASLSGLLKEAHTTISSNDRASLINNAFQLVSIEKLSIEKALDLTLYLKNETEIMPIFQALNELIPMYKLMEKRDMIEVETQFKDFLLKLLKDLIDKQTWTDEGSVSERMLRSQLLLLACVRNYQPCVQRAERYFREWKSSNGNMSIPIDVTLAVFAVGAQNTEGWDFLYSKYQSSLSSTEKSQIEFSLCTSKDPEKLQWLLDQSFKGEIIKTQEFPHILTLIGRNPVGYPLAWKFLRENWNKLVQKFELGSSSIAHMVMGTTDQFSTRARLEEVKGFFSSLKENGSQLRCVQQTIETIEENIRWMDKNFDKIRLWLQKEKPELL
release of dA40(S) from the conjugate, polyacrylamide gel electrophoresis after enzyme treatment [5]: no change was observed in the electrophoretic distance even when subjected to enzyme treatment | release of dA40(S) from the conjugate, polyacrylamide gel electrophoresis after enzyme treatment [6]: the peptide was almost completely released and a band of dA40(S) was observed | release of dA40(S) from the conjugate, polyacrylamide gel electrophoresis after enzyme treatment [7]: a band of dA40(S) was slightly observed after the enzyme treatment
